Assays:
[1] = system: diabetic ZDF rats; experiment: Oral ABH in type 2 diabetic ZDF rats: vascular and erectile function (Example 7); assay type: in vivo, rat
Source text: The effects of ABH in the ZDF rat model of type 2 diabetes after systemic in vivo administration is investigated as described below. […] Given the similarities in indicators of vascular dysfunction between aged rats and diabetic animals and humans with respect to elevated arginase and decreased NO the prediction is that orally-administered ABH will result in similar improvements in vascular and erectile function in the type 2 diabetic ZDF rats. […] ABH is hypothesized to inhibit pathologically elevated vascular arginase, restore normal eNOS coupling, and enhance both erectile and vascular endothelial function. […]
ZDF rats are made diabetic by feeding a high-fat diet, while a cohort of ZLC rats are fed a normal diet. […] Aortic PWV is calculated as the separation distance divided by the difference in arrival times of the rat's pulse, with respect to the R-peak of the electrocardiogram (ECG), reported in meters per second (m/s).
At the end of the 4 week treatment period, erectile function is determined in vivo. […] Erectile response to electrical field stimulation (neurogenic response) is measured by catheterizing the right crus, and connecting it to a pressure transducer to permit continuous measurement of intracavernosal pressure (ICP). […] The erectile response (ICP) to injections of […] is determined. ICP is monitored during ACh administration, and until it returns to baseline. […]

[2] = system: rat aortic rings; experiment: Vasorelaxation of aortic rings in organ chambers after 28 days oral ABH; assay type: in vivo
Procedure: To investigate whether these changes in vascular stiffness could be related to specific measures of endothelial function, rats were euthanized following treatment, and the thoracic aortas dissected and placed in organ chambers as previously described (White, et al., 2006 Hypertension 47: 245-251). Rat aortic rings were pre-constricted using phenylephrine (1 μM), and vasorelaxant response to the endothelial-dependent (NO mediated) vasodilator acetylcholine (ACh), administered at 1 μM to 10 μM, was determined. […] ABH had no effect on vascular endothelial relaxation in young rats.

Compound: N[C@@H](CCCCB(O)O)C(=O)O [ABH, 2(S)-Amino-6-boronohexanoic acid]
- vascular arginase activity and vascular ROS concentration ([1]; ABH orally four weeks, vs untreated diabetic ZDF rats): significant decreases
- in vivo erectile function, pulse wave velocity and ex vivo vasorelaxation ([1]; ABH orally in drinking water four weeks, vs untreated ZDF rats): significant improvements
- responses to the endothelial-independent NO donor SNP in aortic rings ([2]; after 28 days oral ABH): not affected
- vascular relaxation to acetylcholine (ACh) in aortic rings ([2]; aged rats, 28 days oral ABH, rings pre-constricted with phenylephrine 1 μM): substantially improved
- vascular endothelial relaxation in aortic rings ([2]; young rats): no effect
